Several values for one entry are separate records, joined by “and”; a condition that tells them apart may be missing. Identical values can stand only once. Toxic doses and inconclusive results are not listed. How the source made its calls: active means survival T/C of 150% or more; inactive means T/C below 125% in these data.
Tested on: BDF1 mice, B16 melanoma ip, median survival T/C
Experiment: NCI In Vivo Anticancer Drug Screen. Data for tumor model B16 Melanoma (intraperitoneal) in B6D2F1 (BDF1) mice
Conditions: endpoint: median survival time, higher = longer survival
In short: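 In this screen, activity was judged from survival or tumor size in treated versus vehicle-treated tumor-bearing mice, reported as T/C.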

[1] = dose: 100.0 mg/kg/injection, schedule: Q01DX009 (ip), vehicle: Klucel (hydroxypropylcellulose) (HPC)
[2] = dose: 200.0 mg/kg/injection, schedule: Q01DX009 (ip), vehicle: Klucel (hydroxypropylcellulose) (HPC)
[3] = dose: 400.0 mg/kg/injection, schedule: Q01DX009 (ip), vehicle: Klucel (hydroxypropylcellulose) (HPC)
[4] = dose: 12.5 mg/kg/injection, schedule: Q01DX009 (ip), vehicle: saline
[5] = dose: 25.0 mg/kg/injection, schedule: Q01DX009 (ip), vehicle: saline
[6] = dose: 50.0 mg/kg/injection, schedule: Q01DX009 (ip), vehicle: saline
[7] = dose: 100.0 mg/kg/injection, schedule: Q01DX009 (ip), vehicle: saline
[8] = dose: 3.13 mg/kg/injection, schedule: Q01DX009 (ip), vehicle: saline
[9] = dose: 6.25 mg/kg/injection, schedule: Q01DX009 (ip), vehicle: saline
[10] = dose: 50.0 mg/kg/injection, schedule: Q01DX009 (ip), vehicle: saline with Tween-80
[11] = dose: 100.0 mg/kg/injection, schedule: Q01DX009 (ip), vehicle: saline with Tween-80
[12] = dose: 25.0 mg/kg/injection, schedule: Q01DX009 (ip), vehicle: saline with Tween-80
[13] = dose: 12.5 mg/kg/injection, schedule: Q01DX009 (ip), vehicle: saline with Tween-80

Measured: T/C

CC1CN1c1nc(N2CC2C)nc(N2CC2C)n1 (stereo not drawn)
inactive: dose: 0.25 mg/kg/injection, schedule: Q01DX009 (ip), vehicle: saline 105 % of control | dose: 0.5 mg/kg/injection, schedule: Q01DX009 (ip), vehicle: saline 97 % of control | dose: 1.0 mg/kg/injection, schedule: Q01DX009 (ip), vehicle: saline with Tween-80 111 % of control | dose: 1.0 mg/kg/injection, schedule: Q01DX009 (ip), vehicle: saline 98 % of control | dose: 2.0 mg/kg/injection, schedule: Q01DX009 (ip), vehicle: saline with Tween-80 116 % of control | dose: 2.0 mg/kg/injection, schedule: Q01DX009 (ip), vehicle: saline 94 % of control | dose: 2.0 mg/kg/injection, schedule: Q04DX003 (ip), vehicle: saline 105 % of control | dose: 4.0 mg/kg/injection, schedule: Q01DX009 (ip), vehicle: saline with Tween-80 105 % of control | dose: 4.0 mg/kg/injection, schedule: Q04DX003 (ip), vehicle: saline 94 % of control | dose: 8.0 mg/kg/injection, schedule: Q01DX009 (ip), vehicle: saline with Tween-80 90 % of control | dose: 8.0 mg/kg/injection, schedule: Q04DX003 (ip), vehicle: saline 105 % of control

Clc1nnc(Nc2ccccc2)c2ccccc12
inactive: [1] 92 % of control | [2] 97 % of control | [3] 86 % of control

COc1cccc(NC(=O)Nc2ccccc2)c1
inactive: [1] 110 % of control | [2] 101 % of control | [3] 88 % of control

CCO/C=C1\SC(=S)N(c2ccccc2OC)C1=O
inactive: dose: 12.5 mg/kg/injection, schedule: Q01DX009 (ip), vehicle: Klucel (hydroxypropylcellulose) (HPC) 109 % of control | dose: 25.0 mg/kg/injection, schedule: Q01DX009 (ip), vehicle: Klucel (hydroxypropylcellulose) (HPC) 99 % of control and 117 % of control | dose: 50.0 mg/kg/injection, schedule: Q01DX009 (ip), vehicle: Klucel (hydroxypropylcellulose) (HPC) 107 % of control and 111 % of control | [1] 86 % of control and 107 % of control | [2] 111 % of control

Clc1ccc(Br)c(Cl)c1
inactive: [1] 93 % of control | [2] 93 % of control | [3] 93 % of control

COc1ccc(/C=C(\C)[N+](=O)[O-])cc1OC
inactive: dose: 12.5 mg/kg/injection, schedule: Q01DX009 (ip), vehicle: other 88 % of control | dose: 25.0 mg/kg/injection, schedule: Q01DX009 (ip), vehicle: other 93 % of control

N=c1ccn2c(n1)OC1C(O)C(CO)OC12 (stereo not drawn)
inactive: [4] 98 % of control | [5] 96 % of control and 109 % of control | [6] 102 % of control and 108 % of control and 117 % of control | dose: 100.0 mg/kg/injection, schedule: Q01DX009 (ip), vehicle: saline sonified 104 % of control | [7] 120 % of control and 105 % of control | dose: 200.0 mg/kg/injection, schedule: Q01DX009 (ip), vehicle: saline sonified 104 % of control | dose: 200.0 mg/kg/injection, schedule: Q01DX009 (ip), vehicle: saline 114 % of control and 124 % of control | dose: 400.0 mg/kg/injection, schedule: Q01DX009 (ip), vehicle: saline sonified 110 % of control

CN(C)C(=O)c1cccc(COc2ccc(N3C(N)=NC(N)=NC3(C)C)cc2Cl)c1
inactive: dose: 1.56 mg/kg/injection, schedule: Q01DX009 (ip), vehicle: saline 120 % of control | [8] 120 % of control | [9] 117 % of control | [4] 104 % of control and 105 % of control | [5] 104 % of control and 117 % of control | [6] 100 % of control

O=C(Cc1ccccc1)NC/C=N/O
inactive: [10] 107 % of control | [11] 102 % of control | dose: 200.0 mg/kg/injection, schedule: Q01DX009 (ip), vehicle: saline with Tween-80 93 % of control | dose: 400.0 mg/kg/injection, schedule: Q01DX009 (ip), vehicle: saline with Tween-80 100 % of control

CN(C)c1ccc(C=C2c3ccccc3-c3ccccc32)cc1
inactive: [1] 106 % of control | [2] 103 % of control | [3] 106 % of control

Cc1cc(C)cc(OC(=O)/C=C/C(=O)Oc2cc(C)cc(C)c2)c1
inactive: [12] 98 % of control | [10] 87 % of control | [11] 93 % of control

Cc1ccc(Cl)cc1N=Cc1ccccc1O
inactive: dose: 100.0 mg/kg/injection, schedule: Q04DX003 (ip), vehicle: saline with Tween-80 104 % of control | dose: 200.0 mg/kg/injection, schedule: Q04DX003 (ip), vehicle: saline with Tween-80 100 % of control | dose: 400.0 mg/kg/injection, schedule: Q04DX003 (ip), vehicle: saline with Tween-80 104 % of control

COP(=O)(OC)OCc1cnc(SC)nc1N
inactive: [6] 121 % of control | [7] 100 % of control

CCN1C[C@]2(COC)[C@H](O)C[C@H](OC)[C@]34C1[C@H]([C@H](OC)[C@H]23)[C@]1(OC(C)=O)[C@H]2[C@@H](OC(=O)c3ccccc3)[C@](O)(C[C@H]24)[C@@H](OC)[C@@H]1O
inactive: dose: 15.0 micrograms/kg/injection, schedule: Q01DX009 (ip), vehicle: Klucel (hydroxypropylcellulose) (HPC) 92 % of control | dose: 60.0 micrograms/kg/injection, schedule: Q01DX009 (ip), vehicle: Klucel (hydroxypropylcellulose) (HPC) 89 % of control | dose: 120.0 micrograms/kg/injection, schedule: Q01DX009 (ip), vehicle: Klucel (hydroxypropylcellulose) (HPC) 94 % of control

CN(C)c1nc(N(C)C)nc(N(C)C)n1
inactive: dose: 10.0 mg/kg/injection, schedule: Q01DX009 (ip), vehicle: Klucel (hydroxypropylcellulose) (HPC) 108 % of control | [13] 99 % of control and 106 % of control and 107 % of control | dose: 20.0 mg/kg/injection, schedule: Q01DX009 (ip), vehicle: Klucel (hydroxypropylcellulose) (HPC) 94 % of control | dose: 20.0 mg/kg/injection, schedule: Q01DX009 (ip), vehicle: saline with Tween-80 88 % of control and 99 % of control | dose: 20.0 mg/kg/injection, schedule: Q02DX009 (ip), vehicle: saline with Tween-80 103 % of control and 107 % of control | dose: 25.0 mg/kg/injection, schedule: Q02DX009 (ip), vehicle: Klucel (hydroxypropylcellulose) (HPC) 97 % of control | dose: 40.0 mg/kg/injection, schedule: Q01DX009 (ip), vehicle: Klucel (hydroxypropylcellulose) (HPC) 100 % of control | dose: 40.0 mg/kg/injection, schedule: Q01DX009 (ip), vehicle: saline with Tween-80 93 % of control and 97 % of control | dose: 40.0 mg/kg/injection, schedule: Q02DX009 (ip), vehicle: saline with Tween-80 103 % of control and 112 % of control | dose: 50.0 mg/kg/injection, schedule: Q02DX009 (ip), vehicle: Klucel (hydroxypropylcellulose) (HPC) 96 % of control | dose: 80.0 mg/kg/injection, schedule: Q01DX009 (ip), vehicle: Klucel (hydroxypropylcellulose) (HPC) 100 % of control | dose: 80.0 mg/kg/injection, schedule: Q01DX009 (ip), vehicle: saline with Tween-80 100 % of control and 102 % of control | dose: 80.0 mg/kg/injection, schedule: Q02DX009 (ip), vehicle: saline with Tween-80 104 % of control and 109 % of control | dose: 100.0 mg/kg/injection, schedule: Q02DX009 (ip), vehicle: Klucel (hydroxypropylcellulose) (HPC) 101 % of control | dose: 160.0 mg/kg/injection, schedule: Q01DX009 (ip), vehicle: Klucel (hydroxypropylcellulose) (HPC) 91 % of control | dose: 160.0 mg/kg/injection, schedule: Q01DX009 (ip), vehicle: saline with Tween-80 111 % of control | dose: 160.0 mg/kg/injection, schedule: Q02DX009 (ip), vehicle: saline with Tween-80 107 % of control and 115 % of control | dose: 200.0 mg/kg/injection, schedule: Q02DX009 (ip), vehicle: Klucel (hydroxypropylcellulose) (HPC) 124 % of control

COP12(OCCO1)SC(C(F)(F)F)=C(C(F)(F)F)S2
inactive: [13] 100 % of control | [12] 104 % of control

[Br][Pt].[NH-]CC[N-]CC[NH-]
inactive: [8] 108 % of control | [9] 90 % of control | [4] 91 % of control | [5] 91 % of control

— PubChem BioAssay AID192 (DTP/NCI, 2004)
